Assay results from doi:10.1101/2025.03.14.643404, “A Bivalent Molecular Glue Linking Lysine Acetyltransferases to Oncogene-induced Cell Death” (bioRxiv, 2025).

Tests used:
c-MYC mRNA = test: RT-qPCR of c-MYC transcripts in SUDHL5; format: cell-based, human; conditions: for effect of competitor co-treatment on c-MYC mRNA repression by TCIP3: SUDHL5, 10 nM TCIP3 plus 500 nM inhibitor, 1 h; for c-MYC repression compared with TCIP3: SUDHL5, matched concentrations, transcript or proteomic level
Procedure: Cells were plated at 1M/mL and harvested in TRIsure (Bioline 38033). RNA was extracted using Direct-zol RNA MicroPrep columns (Zymo R2062) treated with DNAseI. cDNA was prepared (Meridian Bioscience BIO-65054) and used for qPCR (Meridian Bioscience BIO-94050) using an AppliedBiosystems QuantStudio 6Pro. Primer sequences were the following:
• c-MYC fwd: […]; • c-MYC rev: […]; • GAPDH fwd: […]; • GAPDH rev: […].

SUDHL5 cells [1] = test: Cell viability, 72 h compound treatment (PrestoBlue), SUDHL5; format: cell-based, human; conditions: for effect of inhibitor co-treatment on TCIP3 cell killing: SUDHL5, constant 1 nM TCIP3 plus titrated inhibitor, 72 h
Procedure: Thirty thousand cells were seeded in 100 μl of media per well of a 96-well plate and treated with drug for the indicated times and doses. A resazurin-based indicator of cell health (PrestoBlue; P50200, Thermo Fisher) was added for 1.5 h at 37°C, at which point the fluorescence ratio at 560/590 nm was recorded (Tecan Spark). The background fluorescence was subtracted, and the signal was normalized to DMSO-treated cells. IC50 measurements on cell lines were calculated using at least three biological replicates (separate cell passages). Fit of dose–response curves to data and statistical analysis was performed using GraphPad PRISM using the four-parameter log(inhibitor) vs response function.

p300^Q1083A = p300^Q1083A (Homo sapiens, UniProt P41182+Q09472, Q1082A); test: TR-FRET binary displacement assay, p300 Q1083A bromodomain; format: binding; conditions: α = Kd binary/Kd ternary
Procedure: (§1) Drugs were digitally dispensed (Tecan D300e) into protein-containing wells, and the plate was allowed to incubate in the dark for 1 hour at room temperature. Emission at 490 nm (terbium) and 520 nm (FITC) was measured on a PHERAstar FS plate reader (BMG Labtech) upon excitation with 337 nm. The ratio of signal at 520 nm to 490 nm was calculated and normalized to DMSO-treated protein.

p300^Q1083R = p300^Q1083R (Homo sapiens, UniProt P41182+Q09472, Q1082R); test: TR-FRET binary displacement assay, p300 Q1083R bromodomain; format: binding; conditions: α = Kd binary/Kd ternary
Procedure: as §1

BCL6^BTB = biological target: T1, BCL6^BTB (Homo sapiens, UniProt P41182); test: BCL6BTB nanoBRET probe displacement in HEK293T; format: cell-based; conditions: compared with TCIP3
T1 construct: human BCL6 (Uniprot: P41182; aa1–129); expressed in transfected cells; host or cells: HEK293T
Procedure: The construct for NanoLuciferase(NanoLuc)-tagged BCL6^BTB was created as follows in a lentiviral construct: an N-terminal NanoLuc (subcloned from pNLSF-1, Promega N1351) was fused to the BTB domain of human BCL6 (Uniprot: P41182; aa1–129) with an internal GSG linker followed by a V5 tag. HEK293T cells were plated at a density of 6×10^5 cells/mL in 2 mL of DMEM/well in a tissue culture treated 6-well plate and were allowed to incubate overnight at 37 °C. The next day, each well of cells was transfected with 2 ug of NanoLuc-BCL6^BTB (renamed pNSG218) using Lipofectamine 2000. The transfected cells were allowed to incubate overnight at 37 °C. The following day, the transfected cells were trypsizined, washed with PBS, counted with Trypan Blue, and brought to a final concentration of 1.25×10^5 cells/mL in Fluorobrite DMEM (Gibco A1896701) supplemented with 10% FBS. 1 uM TNL-15 probe was added to the cells before plating 5000 cells per well in a volume of 40 uL per well in a 384-well plate. […] Data was then obtained using a PheraStar FS plate reader (BMG Labtech) measuring luminescence with 520-BP and 450-BP filters. […]
For all NanoBRET assays, a dose-response curve with 3 technical replicates was constructed for each compound, and corrected BRET ratios were calculated according to manufacturer assay protocol (Promega TM439). […]

SUDHL5 cells [2] = test: Global proteome profiling in SUDHL5, whole proteome; format: cell-based, human; conditions: SUDHL5, 10 nM, 6 and 24 hours
Procedure: SUDHL5 cells (6M cells in 6 mL RPMI-1640 media supplemented with 10% FBS and 1x pen-strep) were treated with 0.1% DMSO, 10 nM TCIP3, 10 nM Neg1, 10 nM Neg2, or 250 nM dCBP1 (1000x stocks in DMSO for final 0.1% DMSO concentration) in 3 biologically independent replicates. The cells were washed twice with TBS (50 mM Tris, pH 8.5, and 150 mM NaCl) and then stored at −80 °C until use.
Lysis was performed by first thermally denaturing the samples in residual wash buffer for 5 min at 95 °C. Fresh Lysis Buffer (8 M urea, 150 mM NaCl, and 100 mM HEPES, pH 8.0, in MS-grade water) was then added, and the lysates were homogenized using needle ultrasonication and then normalized to 30 μg of 2 mg/mL by diluting with Lysis Buffer via a Bradford protein concentration assay (Bio-Rad 5000006) in technical duplicates. […]
Samples were then desalted using SOLAμ SPE HRP Peptide Desalting columns (Thermo 60209–001) with a Positive Pressure Manifold and all MS-grade reagents. […] The samples were then reconstituted in 0.1% FA in water and then analyzed by LC-MS/MS (see below).
The reconstituted desalted peptides were then analyzed using a nanoElute 2 UHPLC (Bruker Daltonics, Bremen, Germany) coupled to a timsTOF HT (Bruker Daltonics, Bremen, Germany) via a CaptiveSpray nano-electrospray source. […]

[3] = test system: BCL6-repressed GFP reporter; test: BCL6 reporter assay (BCL6-repressed GFP) in K422 cells; format: cell-based, human; conditions: 24 h
Procedure: KARPAS422 cells were lentivirally transduced with a construct containing the reporter. Description of the reporter construct has been published previously. After selection, cells were plated and treated with indicated amount of compound for 24 hours. Cells were washed in 2.5% FBS/PBS, stained with 1:250 v/v of 7-AAD (BD 559925) to distinguish live from dead cells, and harvested for flow cytometry on a BD Accuri. Given the polyclonal population after transduction, the area under the curve of the histogram representing FITC signal across all live cells was calculated as an integrative measure of total GFP signal. A GFP-positive gate two standard deviations from the mean was drawn from non-transduced cells and the area past a constant threshold was calculated and normalized to the signal from cells treated with DMSO.

Row | cooperativity α (p300^Q1083A) | cooperativity α (p300^Q1083R) | cellular binding to BCL6 BTB (BCL6^BTB) | IC50 (SUDHL5 cells [1]; Homo sapiens, SU-DHL-5, SUDHL5, 72 h, read-out: IC50 cell viability / antiproliferation) [µM] | Structure (SMILES) | effect of competitor co-treatment on c-MYC mRNA repression by TCIP3 (c-MYC mRNA) | c-MYC repression compared with TCIP3 (c-MYC mRNA) | effect of inhibitor co-treatment on TCIP3 cell killing (SUDHL5 cells [1]) | proteome changes relative to DMSO (SUDHL5 cells [2]) | activation of GFP expression [3]
1 |  |  |  |  | CNC(=O)COc1cc2cc(Nc3nc(N4CCC(C(=O)N(C)C)CC4)ncc3Cl)cc(OC)c2n(C)c1=O [BI-3812] | almost completely restored c-MYC levels to baseline | Neither GNE-781, dCBP-1, NEG1, NEG2, nor the BCL6^BTB inhibitor BI-3812 produced comparable c-MYC repression | buffered the effects of TCIP3 on cell viability |  | 
2 | ~ 0.88 | ~ 1.0 |  |  | CNC(=O)N1CCc2c(c(N3CCCc4cc(-c5cnn(C)c5)c(C(F)F)cc43)nn2C2CCOCC2)C1 [GNE-781] | restored c-MYC levels to those observed with GNE-781 treatment alone | Neither GNE-781, dCBP-1, NEG1, NEG2, nor the BCL6^BTB inhibitor BI-3812 produced comparable c-MYC repression | buffered the effects of TCIP3 on cell viability |  | 
3 |  |  | potent binders | 2.1 | CNC(=O)COc1cc2cc(Nc3nc(N4CCC(C(=O)N5CCN(CCC(=O)N6CCC(n7nc(N8CCCc9cc(-c%10cnn(C)c%10)c(C(F)F)cc98)c8c7CCN(C(=O)c7ccccc7)C8)CC6)CC5)CC4)ncc3Cl)cc(OC)c2n(C)c1=O [NEG2] |  | Neither GNE-781, dCBP-1, NEG1, NEG2, nor the BCL6^BTB inhibitor BI-3812 produced comparable c-MYC repression |  | no significant changes relative to DMSO | Neither NEG1 nor NEG2 activated GFP expression
